# Results published in article PMC8778187, “A New Oxygen Containing Pyclen-Type Ligand as a Manganese(II) Binder for MRI and ^52Mn PET Applications: Equilibrium, Kinetic, Relaxometric, Structural and Radiochemical Studies” (Molecules, 2022).
# Like-named read-outs stand apart in the source and are kept apart here. Marks after values point to notes of the source that are not given here.
# Experiments:
# [1] = T = 25 °C, ref 16 (PC2A ligands), 12 (DO2A ligands), cited from earlier work; for log KMnL / log KMnHL: Mn^2+ complex, I = 0.15 M NaCl; for log KMnL / pMn: 20 (H21,7-O2DO2A); for pMn: pMn = −log(Mn(II)free), cMn^2+ = cligand = 1 × 10^−5 M, pH = 7.4
# [2] = Cu^2+ complex; T = 25 °C, I = 0.15 M NaCl; ref 16 (PC2A ligands), 12 (DO2A ligands), 20 (H21,7-O2DO2A); cited from earlier work
# [3] = cited from earlier work; for r1p: Mn(II) complex, 0.49 T, pH = 7.4, ref 16 (PC2A ligands), 12 (DO2A ligands), 20 (H21,7-O2DO2A); for r1p / relaxivity upon binding to HSA: 25 °C; for relaxivity upon binding to HSA: Mn(II) bound to HSA; for relaxivity of complexes with q = 0: typical values
# [4] = Ca^2+ complex; T = 25 °C, I = 0.15 M NaCl; ref 16 (PC2A ligands), 12 (DO2A ligands), 20 (H21,7-O2DO2A); cited from earlier work
# [5] = Zn^2+ complex, T = 25 °C, I = 0.15 M NaCl, cited from earlier work; for log KMnLOH: DO2A values carry footnote f, ref 12 (DO2A ligands); for log KMnLOH / log KMnL: 20 (H21,7-O2DO2A); for log KMnL / log KMnHL: ref 16 (PC2A ligands), 12 (DO2A ligands)
# [6] = T = 25 °C, I = 0.15 M NaCl, ref 16 (PC2A ligands), 12 (DO2A ligands), cited from earlier work; for log K1^H / log K2^H / log K3^H / Σlog Κ2^H: 20 (H21,7-O2DO2A); for Σlog Κ2^H: log K1^H + log K2^H
# [7] = 1H relaxometry: r1p and r2p relaxivity of Mn(II) complexes; assay type: physicochemical; details: free Mn(II) ion, 1.41 T
# Protocol: The relaxivity of Mn(II) complexes is one of the most important parameters that directly correlates with its MRI efficacy. Relaxivity is defined as the longitudinal (r1p) and transverse (r2p) water proton relaxation rate enhancement, provided by 1.0 mM concentration of the paramagnetic species. The relaxivity (r1p and r2p) of the Mn(II) complexes were determined using relaxometers operating at 0.49 T and 1.41 T field strength, in a HEPES buffer (I = 0.15 M NaCl) at different temperatures from the slopes of plots 1/T1,2 vs. (Mn(II)) for 4 concentrations of Mn(II) (data shown in Supporting Information Figures S24 and S25), and they are compared in Table 4.
# The ^1H longitudinal (T1) and transverse (T2) relaxation times were measured by using Bruker Minispec MQ-20 and MQ-60 NMR analyzers (Bruker corporation, Billerica, MA, USA). The temperature of the sample holder was set at 25.0 or 37 (±0.2) °C, and controlled with a circulating water bath thermostat. The T1 values of the samples were determined by means of the inversion recovery method (180°–τ–90°), averaging 4–6 data points obtained at 12 different τ delay times, while T2 data were collected by using the Carl–Purcell–Meiboom–Gill (CPMG) spin-echo pulse sequence. Relaxivities were determined by published procedures (from the slopes of the plots of 1/T1,2 vs. (Mn(II)) for 4 concentrations of Mn(II)), in samples of 0.3–0.4 mL volume (data shown in Figures S24 and S25, Supplementary Information). The pH were set by either using a 0.05 M 4-(2-hydroxyethyl)-1-piperazine-ethanesulfonic acid (HEPES) buffer (pH = 7.4) or monitored (pH profiles) using a Metrohm 827 pH lab pH meter and a Metrohm 6.0234.100 combined electrode, in the pH range of 1.75–11.8.
# [8] = cited from earlier work; for k2: ref 16 ([Mn(3,6-PC2A)]), 12 ([Mn(1,4-DO2A)]), 20 ([Mn(1,7-O2DO2A)]); for t1/2 (h) at pH = 7.4: extrapolated to pH = 7.4; for t1/2 (h) at pH = 7.4 / k1: ref 16 (PC2A complexes), 12, 13, 20; for k1: proton assisted dissociation
# [9] = 17O NMR and NMRD measurements (water exchange, rotation, hydration number); assay type: physicochemical; details: ratio of kex^298 values
# Protocol: The relaxivity of paramagnetic metal complexes is governed by several parameters, including the water exchange rate (kex), the rotational correlation time (τR), and the number of inner sphere water molecules (q). In order to obtain information for these parameters, temperature dependent ^17O NMR measurements (9.4 T) and nuclear magnetic relaxation dispersion (NMRD) experiments were carried out in the frequency range of 0.01–80 MHz, at 3 different temperatures (25, 37, and 50 °C). Since numerous physico-chemical parameters determine the relaxivity, the independent assessment of some of the parameters is essential for the correct characterization. The variable temperature ^17O NMR measurements can deliver information about kex and τR via the transverse (1/T2) and the longitudinal (1/T1) ^17O relaxation rates, respectively, while the ^17O chemical shifts (Δω) depend on q. Therefore, the transverse and longitudinal relaxation rates and chemical shifts for a [Mn(3,9-OPC2A)] complex and a diamagnetic reference sample (HClO4, pH = 3.3) have been determined in the aqueous solution.
# The ^17O 1/T2r values and the NMRD data have been analyzed simultaneously by the Swift–Connick equations [31], as well as by the Solomon–Bloembergen–Morgan (SMB) and Freed models (see Supporting Information). In this calculation, the water exchange rate, kex^298; its activation enthalpy and entropy, ΔH^‡ and ΔS^‡; the rotational correlational time, τR; its activation energy, ER; the square of the zero-field splitting energy (ZFS), Δ^2; and the correlation time of its modulation, τv, have been determined and listed in Table 5, together with corresponding values of other complexes for comparison. As a result of the high number of parameters involved in the calculations, some have to be set to reasonable estimates based on literature data. Thus, the scalar coupling constant, A/ħO, is set to 33 × 10^6 rad s^−1, the distance between the metal ion, and the inner and outer sphere water protons are fixed to rMnH = 2.83 Å and aMnH = 3.6 Å, respectively; the diffusion coefficient and its activation energy are fixed to DMnH = 23 × 10^−10 m^2s^−1 and EMnH = 18 kJmol^−1, and the activation energy of the modulation of the zero-field-splitting, Ev to 1.0 kJmol^−1.
# The hydration number has been fixed to q = 1, based on the relaxivity value measured at 20 MHz (r1 = 3.09 mM^−1s^−1), and on the value, 0.97 ± 0.2, determined for q using the method proposed by Gale et al..
# A Bruker Avance 400 (9.4 T) spectrometer was used to measure the longitudinal (1/T1) and transverse (1/T2) relaxation rates, and the chemical shifts of an aqueous solution of the [Mn(3,9-OPC2A)] complex (pH = 7.4, 1.3 mM) and a diamagnetic reference (HClO4 acidified water, pH = 3.3) in the temperature range of 273–348 K. The temperature calibration was performed using literature protocols relying on ethylene glycol and methanol standards. The 1/T1 and 1/T2 values were determined by the inversion−recovery and the Carr−Purcell−Meiboom−Gill spin echo technique, respectively. To avoid susceptibility corrections of the chemical shifts, a glass sphere fitted into a 10 mm NMR tube was used to contain the samples. ^17O enriched water (10% H2^17O, CortecNet) was added to the solutions to improve sensitivity (circa 1% enrichment). Proton NMRD profiles of the [Mn(3,9-OPC2A)] complex (1.00 mM, pH = 7.4) were recorded in aqueous solution on a Stelar SMARTracer Fast Field Cycling relaxometer (0.01−10 MHz), and a Bruker WP80 NMR electromagnet adapted to variable field measurements (20−80 MHz) and controlled by a SMARTracer PC-NMR console (Stelar s.r.l., Mede, Italy). The temperature was monitored by a VTC91 temperature control unit and maintained by a gas flow. The temperature was determined by previous calibration with a Pt resistance temperature probe. […]
# [10] = cited from earlier work; for r1^298_20 MHz: 20 MHz, 298 K; for ΔH^‡: activation enthalpy of water exchange; for τv^298: correlation time of ZFS modulation; for q: hydration number; for τR^298: rotational correlation time; for Δ^2: square of the zero-field splitting energy; for kex^298: water exchange rate
# [11] = fixed during the fitting procedure
compound,measurement,setting,value
"O=C(O)CN1CCNCCNCCN(CC(=O)O)CC1 [H21,4-DO2A]",log KMnL,[1],15.68
same,log KMnHL,[1],4.15
same,pMn,[1],7.27
same,log KMnHL,[2],2.95
same,log KMnL,[2],24.43 ^g
same,r1p,[3],2.10 mM⁻¹ s⁻¹
same,log KMnL,[4],8.62
same,log KMnLOH,[5],1.65 ^f
same,log KMnL,[5],18.03
same,log KMnHL,[5],3.58
same,log K1^H,[6],11.44
same,log K2^H,[6],9.51
same,log K3^H,[6],4.14
same,log K4^H,[6],1.55
same,Σlog Κ2^H,[6],20.95
"O=C(O)CN1CCNCCN(CC(=O)O)CCNCC1 [H21,7-DO2A]",log KMnL,[1],14.64
same,log KMnHL,[1],4.40
same,pMn,[1],6.52
same,log KMnHL,[2],3.06
same,log KMnL,[2],24.24
same,r1p,[3],1.50 mM⁻¹ s⁻¹
same,log KMnL,[4],8.86
same,log KMnLOH,[5],1.78 ^f
same,log KMnL,[5],18.86
same,log KMnHL,[5],4.23
same,log K1^H,[6],11.69
same,log K2^H,[6],9.75
same,log K3^H,[6],3.97
same,log K4^H,[6],2.68
same,Σlog Κ2^H,[6],21.44
[Mn+2] [Mn(II) ion],relaxivity upon binding to HSA,[3]; 0.47 T,97.2 mM⁻¹ s⁻¹
same,relaxivity upon binding to HSA,[3]; 1.41 T,76.35 mM⁻¹ s⁻¹
same,relaxivity in pure aqueous solution,[3]; Mn(II) ion,7.92 mM⁻¹ s⁻¹
same,r2p relaxivity,[7]; 25 °C,64.3 mM⁻¹ s⁻¹
same,r2p relaxivity,[7]; 37 °C,54.2 mM⁻¹ s⁻¹
"O=C([O-])CN1CCNCCNCCN(CC(=O)[O-])CC1.[Mn+2] [[Mn(1,4-DO2A)]]",k2,"[8]; T = 25 °C, I = 0.15 M NaCl",1.4 × 10^6 M^−2s^−1
same,t1/2 (h) at pH = 7.4,[8],48 h
same,k1,"[8]; T = 25 °C, I = 0.15 M NaCl",99 M⁻¹ s⁻¹
same,"water exchange faster than on [Mn(3,9-OPC2A)]",[9],20 times
same,r1^298_20 MHz,[10],2.1 mM⁻¹ s⁻¹
same,ER,[10]; activation energy of rotation,19.1 kJmol^−1
same,ΔH^‡,[10],29.4 kJmol^−1
same,τv^298,[10],4.4 ps
same,q,[10]; [11],0.87
same,τR^298,[10],46 ps
same,Δ^2,[10],481 10^18s^−2
same,kex^298,[10],113 10^7s^−1
"CN(C)C(=O)CN1CCNCCNCCN(CC(=O)N(C)C)CC1.O.[Mn+2] [[Mn(1,4-DO2AM^Me2)]^2+]",t1/2 (h) at pH = 7.4,[8],556 h
same,k1,"[8]; T = 25 °C, I = 0.15 M NaCl",8.7 M⁻¹ s⁻¹
same,r1^298_20 MHz,[10],2.5 mM⁻¹ s⁻¹
same,ER,[10]; activation energy of rotation,19.1 kJmol^−1
same,ΔH^‡,[10],36.9 kJmol^−1
same,τv^298,[10],5.5 ps
same,q,[10]; [11],0.87
same,τR^298,[10],53 ps
same,Δ^2,[10],510 10^18s^−2
same,kex^298,[10],11.5 10^7s^−1
"O.O=C([O-])CN1CCOCCN(CC(=O)[O-])CCOCC1.[Mn+2] [[Mn(1,7-O2DO2A)]]",k2,"[8]; T = 25 °C, I = 0.15 M NaCl",3.0 × 10^6 M^−2s^−1
same,t1/2 (h) at pH = 7.4,[8],56.8 h
same,k1,"[8]; T = 25 °C, I = 0.15 M NaCl",85 M⁻¹ s⁻¹
same,r1^298_20 MHz,[10],2.86 mM⁻¹ s⁻¹
same,ΔH^‡,[10],29.7 kJmol^−1
same,ΔS^‡,[10]; activation entropy of water exchange,2.8 JK^−1mol^−1
same,ER,[10]; [11],20 ^e kJmol^−1
same,q,[10]; [11],1
same,τR^298,[10],46.7 ps
same,Δ^2,[10],111 10^18s^−2
same,kex^298,[10],5.3 10^7s^−1
"O.O=C([O-])CN1CCNCc2cccc(n2)CN(CC(=O)[O-])CC1.[Mn+2] [[Mn(3,6-PC2A)]]",k2,"[8]; T = 25 °C, I = 0.15 M NaCl",1.5 × 10^5 M^−2s^−1
same,t1/2 (h) at pH = 7.4,[8],63.2 h
same,k3,"[8]; metal assisted dissociation, T = 25 °C, I = 0.15 M NaCl",0.026 M⁻¹ s⁻¹
same,k1,"[8]; T = 25 °C, I = 0.15 M NaCl",70 M⁻¹ s⁻¹
same,KMnL x H,"[8]; protonation constant of the complex from kinetic fit, T = 25 °C, I = 0.15 M NaCl",1.15 × 10^3
same,KML x Cu,"[8]; stability constant of dinuclear intermediate, T = 25 °C, I = 0.15 M NaCl, unit assumed",16 M⁻¹
O=C([O-])CN1CCNCCN(CC(=O)[O-])CCN(CC(=O)[O-])CC1.[Mn+2] [[Mn(DO3A)]^−],relaxivity of complexes with q = 0,[3],1.4 to 1.6 mM⁻¹ s⁻¹
O=C([O-])CN1CCN(CC(=O)[O-])Cc2cccc(n2)CN(CC(=O)[O-])CC1.[Mn+2] [[Mn(PCTA)]^−],relaxivity of complexes with q = 0,[3],1.4 to 1.6 mM⁻¹ s⁻¹
